Test results published in patent publication US20240050463A1, “THERAPEUTIC COMPOSITIONS AND METHODS FOR TREATING HEPATITIS B” (ARBUTUS BIOPHARMA CORPORATION, priority 2016, published 2024).

Tested on: hepatitis B virus (HBV)
Assay: Serum HBsAg in AAV1.2 mouse model of HBV, enzyme immunoassay
Format: in vivo, C57/Bl6 mice
Conditions: D0 (pre-treatment); Compound 20 3.0 mg/kg oral twice daily Days 0-28; HBV siRNA 0.3 mg/kg IV Day 0
Experimental: This viral vector contains a 1.2-fold overlength copy of the HBV genome and expresses HBV surface antigen (HBsAg) amongst other HBV products. Serum HBsAg expression in mice was monitored using an enzyme immunoassay. Animals were sorted (randomized) into groups based on serum HBsAg levels such that a) all animals were confirmed to express HBsAg and b) HBsAg group means were similar to each other prior to initiation of treatments.
Animals were treated with Compound 20 as follows: Starting on Day 0, a 3.0 mg/kg dosage of Compound 20 was administered orally to animals on a twice-daily frequency for a total of 56 doses between Days 0 and 28. Compound 20 was dissolved in a co-solvent formation for administration. Negative control animals were administered either the co-solvent formulation alone, or were not treated with any test article. Animals were treated with lipid nanoparticle (LNP)-encapsulated HBV-targeting siRNAs as follows: On Day 0, an amount of test article equivalent to 0.3 mg/kg siRNA was administered intravenously. The HBsAg expression levels for each treatment were compared against the Day 0 (pre-dose) values for that group.
The effect of these treatments was determined by collecting blood on Days 0 (pre-treatment), 7, 14, and 28 and analyzing it for serum HBsAg content.

For `COCCCOc1cc2c(cc1OC)-c1cc(=O)c(C(=O)O)cn1[C@H](C(C)C)C2` [Compound 20], the “Serum HBsAg, percentage of individual animal pre-treatment baseline value at Day 0 (mean ± SEM)” value was 100 ± 0%.
